Experimental data as given in patent publication US7344727B2, “Process for cleaning bovine teats” (H&S Chemical Company, Inc., priority 2002, dated 2008).

How the values were obtained:
[1] = test system: bacteria on the udder and teat areas; assay: sanitizing the udder and teat areas with a solution of TCM; assay type: in vivo
Text: This invention relates to the use of trichloromelamine as an active agent for sanitizing the udder and teat areas of cows. Like bleach TCM produces the Cl+ ion which is capable of killing a wide spectrum of bacteria. […] Solutions of sodium hypochlorite are generally not suitable for use on living tissue. […] The process of this invention is effected by spraying the udder and teat areas of a bovine with a solution of TCM. The process may be further effected by dipping the udder and teat areas in a solution of TCM. The process of this invention effectively kills all bacteria as may be on the udder and teat areas of a bovine in less than one minute.

[2] = bovine, in vivo
Text: This invention relates to the use of trichloromelamine as an active agent for sanitizing the udder and teat areas of cows. Like bleach TCM produces the Cl+ ion which is capable of killing a wide spectrum of bacteria. […] Solutions of sodium hypochlorite are generally not suitable for use on living tissue.

**Q.** With trichloromelamine [TCM] as the substance, how does the “residual effect on the udder and teat areas” value ([1]; residual TCM left after treatment) read?
**A.** inhibits future bacterial contamination

**Q.** What about the “time to kill the troublesome bacteria” value ([1]; soft living tissue treated in accordance with the invention) of the same substance?
**A.** killed in a matter of seconds

**Q.** What about the “effect on treated living tissue” value [2] of the same substance?
**A.** not adversely affected
